Data: US7595310B2, “Glucuronate salt of a piperazine compound” (Solvay Pharmaceuticals, B.V., priority 2005, dated 2009)

Assays:
D2 receptors = D2 receptors (Homo sapiens, UniProt P14416); settings: in therapeutic models; cited from earlier work
[1] = in vivo; cited from earlier work
[2] = rodents; cited from earlier work
5HT reuptake = settings: in therapeutic models; cited from earlier work
[3] = Comparative equilibrium solubility of salts of compound 1; settings: pH printed beside the equilibrium solubility

D2 receptors, sequence (P14416 whole entry): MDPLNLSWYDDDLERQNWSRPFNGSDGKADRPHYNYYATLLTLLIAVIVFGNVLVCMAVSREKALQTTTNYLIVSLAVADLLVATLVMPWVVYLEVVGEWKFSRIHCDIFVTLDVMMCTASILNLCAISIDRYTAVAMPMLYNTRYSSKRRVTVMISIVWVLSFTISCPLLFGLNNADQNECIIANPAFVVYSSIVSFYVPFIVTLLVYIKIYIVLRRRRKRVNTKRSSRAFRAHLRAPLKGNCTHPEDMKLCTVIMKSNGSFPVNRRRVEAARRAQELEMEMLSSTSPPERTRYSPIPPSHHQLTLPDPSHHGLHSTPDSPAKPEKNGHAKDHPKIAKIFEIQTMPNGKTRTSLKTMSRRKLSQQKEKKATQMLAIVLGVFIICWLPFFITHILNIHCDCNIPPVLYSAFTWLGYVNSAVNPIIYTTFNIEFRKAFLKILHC

Row | Structure (SMILES) | activity at D2 receptors (D2 receptors) | activity in therapeutic models sensitive to clinically relevant antipsychotics, antidepressants, anxiolytics, Parkinson's disease [1] | propensity to induce catalepsy [2] | activity against 5HT reuptake (5HT reuptake) | pH ([3]; listed as freebase (1)) | pH ([3]; listed as glucuronate (2))
1 | CC1Oc2c(cccc2N2CCN(CCCc3c[nH]c4ccc(F)cc34)CC2)NC1=O (stereo not drawn) [compound 1, 8-{4-[3-(5-fluoro-1H-indol-3-yl)-propyl]-piperazin-1-yl}-2-methyl-4H-benzo[1,4]oxazin-3-one] | antagonistic activity | active | low propensity | inhibitory activity | 4.72 | –
2 | CC1Oc2c(cccc2N2CCN(CCCc3c[nH]c4ccc(F)cc34)CC2)NC1=O (stereo not drawn) [compound 2] | – | – | – | – | – | 4.25
